# Results: patent US20130309736A1, “COMPOSITIONS AND METHODS FOR MALATE AND FUMARATE PRODUCTION” (CARGILL, INCORPORATED, priority 2011, published 2013)
# Legend:
# Type in all cases: cell-based
# Candida geochares [1] = assay: Growth rate in YPD shake flasks (first secondary screen)
# Protocol: (§1) For the first secondary screen, growth rates were measured in YPD media containing 0 g/L malate at pH 3.0 or 200 g/L malate at pH 2.85. Shake flasks were inoculated with biomass harvested from seed flasks grown overnight to an OD600 of 6 to 10. 250 mL baffled growth rate flasks (50 mL working volume) were inoculated to an OD600 of 0.1 and grown at 250 rpm and 30° C. Samples were taken throughout the time course of the assay and analyzed for biomass growth via OD600. The resulting OD600 data was plotted and growth rates were established.
# (§2) The same procedures were utilized to screen, rate, and score the original 91 wild-type yeast strains from the primary screen with media containing 0, 30, 45, and 60 g/L lactic acid at pH 3.0 (˜80% free acid). Due to difficulties in properly scoring some very weak growth that occasionally occurred at 60 g/L, 20 strains were re-tested in the primary screen. Of these 20 strains, eight were eliminated due to very slow growth relative to the rest of the test group. The remaining 12 strains were advanced into secondary screening. The secondary screen for lactic acid was the same as that described above for malate, except for changes in concentrations and pH values. Growth rates were measured at 0 g/L lactic acid, pH 3.0 and 50 g/L lactic acid, pH 2.85, and glucose consumption rates were measured in the presence of 50 g/L lactic acid, pH 2.85. Normalized values and weighted and summed scores were calculated for each strain as described above for malate.
# [2] = system: Candida lambica ATCC 38617; assay: as above
# Protocol: as §1, §2
# [3] = system: Candida milleri ATCC 60592; assay: as above
# Protocol: as §1, §2
# [4] = system: Candida sorbosivorans ATCC 38619; assay: as above; conditions: Candida sorosivorans, scale 0 to 1
# Protocol: as §1, §2
# [5] = system: Candida zemplinina PYCC 04-501; assay: as above
# Protocol: as §1, §2
# [6] = system: Issatchenkia orientalis ATCC 24210; assay: as above
# Protocol: as §1, §2
# [7] = system: Issatchenkia orientalis ATCC PTA-6658; assay: as above
# Protocol: as §1, §2
# [8] = system: Issatchenkia orientalis CD1822; assay: as above
# Protocol: as §1, §2
# [9] = system: Kodamaea ohmeri ATCC 20282; assay: as above
# Protocol: as §1, §2
# [10] = system: Saccharomyces bayanus ATCC 90739; assay: as above
# Protocol: as §1, §2
# [11] = system: Saccharomyces bulderi ATCC MYA-402; assay: as above
# Protocol: as §1, §2
# [12] = system: Saccharomyces bulderi ATCC MYA-404; assay: as above
# Protocol: as §1, §2
# Saccharomyces javensis [13] = assay: as above
# Protocol: as §1, §2
# Candida geochares [14] = assay: Glucose consumption rate in YPD shake flasks (second secondary screen); conditions: 50 g/L lactic acid, pH 2.85, scale 0 to 1
# Protocol: (§3) For the second secondary screen, glucose consumption was measured in YPD media containing 0 g/L malate at pH 3.0 or 200 g/L malate at pH 2.85. Shake flasks were inoculated with biomass harvested from seed flasks grown overnight to an OD600 of 6 to 10. 250 mL baffled glycolytic assay flasks (50 mL working volume) were inoculated to an OD600 of 0.1 and grown at 250 RPM and 30° C. Samples were taken throughout the time course of the assay and analyzed for glucose consumption using a 2700 Biochemistry Analyzer (Yellow Springs Instruments, YSI). The resulting data was plotted and glucose consumption rates were established.
# as §2
# [15] = system: Candida lambica ATCC 38617; assay: as above; conditions: 50 g/L lactic acid, pH 2.85, scale 0 to 1
# Protocol: as §3, §2
# [16] = system: Candida milleri ATCC 60592; assay: as above; conditions: 50 g/L lactic acid, pH 2.85, scale 0 to 1
# Protocol: as §3, §2
# [17] = system: Candida sorbosivorans ATCC 38619; assay: as above; conditions: Candida sorosivorans; 50 g/L lactic acid, pH 2.85; scale 0 to 1
# Protocol: as §3, §2
# [18] = system: Candida zemplinina PYCC 04-501; assay: as above; conditions: 50 g/L lactic acid, pH 2.85, scale 0 to 1
# Protocol: as §3, §2
# [19] = system: Issatchenkia orientalis ATCC 24210; assay: as above; conditions: 50 g/L lactic acid, pH 2.85, scale 0 to 1
# Protocol: as §3, §2
# [20] = system: Issatchenkia orientalis ATCC PTA-6658; assay: as above; conditions: 50 g/L lactic acid, pH 2.85, scale 0 to 1
# Protocol: as §3, §2
# [21] = system: Issatchenkia orientalis CD1822; assay: as above; conditions: 50 g/L lactic acid, pH 2.85, scale 0 to 1
# Protocol: as §3, §2
# [22] = system: Kodamaea ohmeri ATCC 20282; assay: as above; conditions: 50 g/L lactic acid, pH 2.85, scale 0 to 1
# Protocol: as §3, §2
# [23] = system: Saccharomyces bayanus ATCC 90739; assay: as above; conditions: 50 g/L lactic acid, pH 2.85, scale 0 to 1
# Protocol: as §3, §2
# [24] = system: Saccharomyces bulderi ATCC MYA-402; assay: as above; conditions: 50 g/L lactic acid, pH 2.85, scale 0 to 1
# Protocol: as §3, §2
# [25] = system: Saccharomyces bulderi ATCC MYA-404; assay: as above; conditions: 50 g/L lactic acid, pH 2.85, scale 0 to 1
# Protocol: as §3, §2
# Saccharomyces javensis [26] = assay: as above; conditions: 50 g/L lactic acid, pH 2.85, scale 0 to 1
# Protocol: as §3, §2
compound,measurement,setting,value
CC(O)C(=O)O (stereo not drawn) [lactic acid],Normalized grade: Growth rate slope,"Candida geochares [1]; lactic acid, scale 0 to 1",0.27
same,Normalized grade: Growth rate 50 g/L lactic acid,"Candida geochares [1]; pH 2.85, scale 0 to 1",0.17
same,Normalized grade: Growth rate slope,"[2]; lactic acid, scale 0 to 1",1
same,Normalized grade: Growth rate 50 g/L lactic acid,"[2]; pH 2.85, scale 0 to 1",0.92
same,Normalized grade: Growth rate slope,"[3]; lactic acid, scale 0 to 1",0.64
same,Normalized grade: Growth rate 50 g/L lactic acid,"[3]; pH 2.85, scale 0 to 1",0
same,Normalized grade: Growth rate slope,[4]; lactic acid,0.95
same,Normalized grade: Growth rate 50 g/L lactic acid,[4]; pH 2.85,0.28
same,Normalized grade: Growth rate slope,"[5]; lactic acid, scale 0 to 1",0.95
same,Normalized grade: Growth rate 50 g/L lactic acid,"[5]; pH 2.85, scale 0 to 1",0.22
same,Normalized grade: Growth rate slope,"[6]; lactic acid, scale 0 to 1",0.73
same,Normalized grade: Growth rate 50 g/L lactic acid,"[6]; pH 2.85, scale 0 to 1",0.89
same,Normalized grade: Growth rate slope,"[7]; lactic acid, scale 0 to 1",0.95
same,Normalized grade: Growth rate 50 g/L lactic acid,"[7]; pH 2.85, scale 0 to 1",0.94
same,Normalized grade: Growth rate slope,"[8]; lactic acid, scale 0 to 1",0.86
same,Normalized grade: Growth rate 50 g/L lactic acid,"[8]; pH 2.85, scale 0 to 1",1.00
same,Normalized grade: Growth rate slope,"[9]; lactic acid, scale 0 to 1",0
same,Normalized grade: Growth rate 50 g/L lactic acid,"[9]; pH 2.85, scale 0 to 1",0.42
same,Normalized grade: Growth rate slope,"[10]; lactic acid, scale 0 to 1",0.91
same,Normalized grade: Growth rate 50 g/L lactic acid,"[10]; pH 2.85, scale 0 to 1",0.08
same,Normalized grade: Growth rate slope,"[11]; lactic acid, scale 0 to 1",0.23
same,Normalized grade: Growth rate 50 g/L lactic acid,"[11]; pH 2.85, scale 0 to 1",0.5
same,Normalized grade: Growth rate slope,"[12]; lactic acid, scale 0 to 1",0.45
same,Normalized grade: Growth rate 50 g/L lactic acid,"[12]; pH 2.85, scale 0 to 1",0.47
same,Normalized grade: Growth rate slope,"Saccharomyces javensis [13]; lactic acid, scale 0 to 1",0.68
same,Normalized grade: Growth rate 50 g/L lactic acid,"Saccharomyces javensis [13]; pH 2.85, scale 0 to 1",0.11
same,Normalized grade: Glycolic rate,Candida geochares [14],0.69
same,Normalized grade: Glycolic rate,[15],1
same,Normalized grade: Glycolic rate,[16],0.92
same,Normalized grade: Glycolic rate,[17],0.59
same,Normalized grade: Glycolic rate,[18],1
same,Normalized grade: Glycolic rate,[19],1
same,Normalized grade: Glycolic rate,[20],1
same,Normalized grade: Glycolic rate,[21],1
same,Normalized grade: Glycolic rate,[22],0.76
same,Normalized grade: Glycolic rate,[23],0.96
same,Normalized grade: Glycolic rate,[24],1
same,Normalized grade: Glycolic rate,[25],1
same,Normalized grade: Glycolic rate,Saccharomyces javensis [26],0
